System: 947758-054-R-J2-PDC spheroid growth, percent test/control
Experiment: Anticancer human tumor 947758-054-R-J2-PDC patient-derived colon adenocarcinoma cell line growth inhibition [CLK]
Conditions: spheroids with HUVEC and MSC; for IC50: curve of first compound; for viability, T/C: stronger effect = lower value; active = viability on the fitted dose curve at most 10% of control; inactive = the rest
Source text: A high-throughput screen of multi-cell type tumor spheroids was designed to identify active combinations of […] and targeted small molecules. Complex spheroids include a stromal component modeled by human endothelial cells (HUVEC) and fibroblasts modeled by human mesenchymal stem cells (MSCs). The concentration ranges selected for each drug and investigational agent were based upon clinically achievable concentrations if the clinical Cmax of the agent was known.
Compounds. The drugs and investigational agents: cirtuvivint (SM08502; NSC835563), CC-671 (NSC850746), vemurafenib (NSC761431), tapotoclax (NSC804041), sotorasib (NSC818433), adagrasib (NSC831453), MRTX-1133 (NSC836407), BAY2416964 (NSC825713), copanlisib (NSC816437), inavolisib (NSC800729), abemaciclib (NSC768073), osimertinib (NSC779217), entinostat (NSC756642), eltanexor (KPT-8602, NSC794443), venetoclax (NSC766270), ceralasertib (NSC777638), bortezomib (NSC756655), olaparib (NSC753686), talazoparib (NSC767125), alisertib (NSC759677), peposertib (NSC802822), gemcitabine (NSC613327), 5-fluorouracil (NSC19893), SN-38 (NSC673596), oxaliplatin (NSC266046), paclitaxel (NSC125973), and doxorubicin (NSC123127), were obtained from the National Cancer Institute (NCI) Developmental Therapeutics Program Chemical Repository. The FDA-approved anticancer drug set is available from the Developmental Therapeutics Program at https://dtp.cancer.gov/organization/dscb/obtaining/available plates.htm. […] The stock solutions were prepared in dimethyl sulfoxide (DMSO, Sigma-Aldrich, St. Louis, MO, cat. D2650), except for the platinum complexes which were prepared in saline (Quality Biological, Gaithersburg, MD, cat. 114-055-101), at 800-fold the tested concentration and stored at -70 degrees C prior to their use. All drugs and investigational agents were tested over a range starting from a high concentration at or near the clinical Cmax and decreasing in half-log increments. If the clinical Cmax for an agent had not been determined, the highest concentration tested was 10 microM.
Cell Culture. All cells were maintained in an incubator at 37 degrees C and 5% CO2 with 95% humidity. The PDC lines were cultured according to standard operating procedures established by the NCI PDMR. Briefly, all PDCs were thawed and cultured in Matrigel-coated flasks prepared with a working solution of 1X Ham's F-12 nutrient mix, without supplementation (Invitrogen, Waltham, MA, cat. 11765054), 100 U/mL penicillin-streptomycin (Invitrogen, cat. 15140122), and 2.5% Matrigel (Corning Inc., Corning, NY, cat. 354248) for the first three passages. The 947758-054-R-J2-PDC line was cultured in 6B/Colon 1A media, which includes advanced DMEM/F-12 (Thermo Fisher Scientific, cat. 12634028), 10 mM HEPES (Thermo Fisher Scientific, cat. 15630080), 1X GlutaMAX supplement (Thermo Fisher Scientific, cat. 35050061), 0.1 mg/mL primocin (InvivoGen, cat. ant-pm-2), 10% defined fetal bovine serum, heat inactivated (HyClone Laboratories Inc., cat. SH30070.03HI), 1.25 mM N-Acetyl-L-cysteine (Sigma-Aldrich, cat. A9165), 10 mM nicotinamide (Sigma-Aldrich, cat. N0636), 1X B-27 supplement (Thermo Fisher Scientific, cat. 17504044), 1X N-2 supplement (Thermo Fisher Scientific, cat. 17502048), and 10 microM Y-27632 dihydrochloride (Tocris Bioscience, cat. 1254). The 876862-298-R-J1-PDC was cultured in 6E media, which includes all 6B/Colon 1A media components plus 50% L-WRN conditioned media (ATCC, cat. CRL-3276), 50 ng/mL recombinant human EGF recombinant protein (hEGF; Thermo Fisher Scientific, cat. PHG0311), 10 ng/mL recombinant human fibroblast growth factor 10 (hGFG-10; PeproTech, cat. 100-26), 1 ng/mL recombinant human fibroblast growth factor 2 (hFGF-2; PeproTech, cat. 100-18B), and 1 µM prostaglandin E2 (PGE2; Tocris, cat. 2296). The 227483-062-R1-J1-PDC line was cultured in Panc media, containing all 6E components except hFGF-2, with the addition of 500 nM SB-431542 (Selleckchem, cat. S1067) and 10 nM gastrin (Tocris, cat. 3006). […]

[1] = second compound 0.0316 µM, first compound 0.0316 µM
[2] = second compound 0.0316 µM, first compound 0.1 µM
[3] = second compound 0.0316 µM, first compound 0.316 µM
[4] = second compound 0.0316 µM, first compound 1 µM
[5] = second compound 0.0316 µM, first compound 3.16 µM
[6] = second compound 0.0316 µM, first compound 10 µM
[7] = second compound 0.1 µM, first compound 0.0316 µM
[8] = second compound 0.1 µM, first compound 0.1 µM
[9] = second compound 0.1 µM, first compound 0.316 µM
[10] = second compound 0.1 µM, first compound 1 µM
[11] = second compound 0.1 µM, first compound 3.16 µM
[12] = second compound 0.1 µM, first compound 10 µM
[13] = second compound 0.316 µM, first compound 0.0316 µM
[14] = second compound 0.316 µM, first compound 0.1 µM
[15] = second compound 0.316 µM, first compound 0.316 µM
[16] = second compound 0.316 µM, first compound 1 µM
[17] = second compound 0.316 µM, first compound 3.16 µM
[18] = second compound 0.316 µM, first compound 10 µM
[19] = second compound 1 µM, first compound 0.0316 µM
[20] = second compound 1 µM, first compound 0.1 µM
[21] = second compound 1 µM, first compound 0.316 µM
[22] = second compound 1 µM, first compound 1 µM
[23] = second compound 1 µM, first compound 3.16 µM
[24] = second compound 1 µM, first compound 10 µM
[25] = second compound 3.16 µM, first compound 0.0316 µM
[26] = second compound 3.16 µM, first compound 0.1 µM
[27] = second compound 3.16 µM, first compound 0.316 µM
[28] = second compound 3.16 µM, first compound 1 µM
[29] = second compound 3.16 µM, first compound 3.16 µM
[30] = second compound 3.16 µM, first compound 10 µM
[31] = second compound 10 µM, first compound 0.0316 µM
[32] = second compound 10 µM, first compound 0.1 µM
[33] = second compound 10 µM, first compound 0.316 µM
[34] = second compound 10 µM, first compound 1 µM
[35] = second compound 10 µM, first compound 3.16 µM
[36] = second compound 10 µM, first compound 10 µM
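Note: spheroids exposed to compounds for one week before readout.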
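Throughout, for viability, T/C: 100% = DMSO vehicle control wells.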

COC1C=CCC(C)C(C)S(=O)(=O)NC(=O)c2ccc3c(c2)N(CC2CCC21)CC1(CCCc2cc(Cl)ccc21)CO3 (centres undefined) + CNC(=O)c1ccc(Nc2nc(OC3CCCC3)c3c(-c4ccc5nc(C)oc5c4)c[nH]c3n2)c(OC)c1
< 0.0316 µM: IC50 (second compound 0.316 µM) | IC50 (second compound 1 µM) | IC50 (second compound 3.16 µM) | IC50 (second compound 10 µM)
5.3 µM: IC50 (second compound 0.1 µM)
7.66 µM: IC50 (second compound 0.0316 µM)
inactive: viability, T/C [1] 75.6% | viability, T/C [2] 83.8% | viability, T/C [3] 90.3% | viability, T/C [4] 116% | viability, T/C [5] 95.3% | viability, T/C [6] 37.3% | viability, T/C [7] 73.4% | viability, T/C [8] 71.2% | viability, T/C [9] 55.5% | viability, T/C [10] 65.1% | viability, T/C [11] 72.1% | viability, T/C [12] 28.5% | viability, T/C [13] 61.8% | viability, T/C [14] 53.6% | viability, T/C [15] 37.2% | viability, T/C [16] 44.1% | viability, T/C [17] 49.2% | viability, T/C [18] 16.7% | viability, T/C [19] 37.5% | viability, T/C [20] 36.1% | viability, T/C [21] 24.4% | viability, T/C [22] 29.5% | viability, T/C [23] 26.4% | viability, T/C [24] 12.4% | viability, T/C [25] 28.3% | viability, T/C [26] 24.4% | viability, T/C [27] 21.8% | viability, T/C [28] 18.2% | viability, T/C [29] 18.1% | viability, T/C [30] 15.3% | viability, T/C [31] 29.4% | viability, T/C [32] 23.3% | viability, T/C [33] 13.2% | viability, T/C [34] 15.4% | viability, T/C [35] 10.6% | viability, T/C [36] 13.5%

O=C(c1cc(Cc2n[nH]c(=O)c3ccccc23)ccc1F)N1CCN(C(=O)C2CC2)CC1 + CNC(=O)c1ccc(Nc2nc(OC3CCCC3)c3c(-c4ccc5nc(C)oc5c4)c[nH]c3n2)c(OC)c1
< 0.0316 µM: IC50 (second compound 10 µM)
> 10 µM: IC50 (second compound 0.0316 µM) | IC50 (second compound 0.1 µM) | IC50 (second compound 0.316 µM) | IC50 (second compound 1 µM)
inactive: viability, T/C [1] 101% | viability, T/C [2] 97.3% | viability, T/C [3] 96.3% | viability, T/C [4] 93.5% | viability, T/C [5] 113% | viability, T/C [6] 80.9% | viability, T/C [7] 110% | viability, T/C [8] 102% | viability, T/C [9] 100% | viability, T/C [10] 99.4% | viability, T/C [11] 110% | viability, T/C [12] 73.7% | viability, T/C [13] 94.3% | viability, T/C [14] 94.8% | viability, T/C [15] 64.5% | viability, T/C [16] 71.5% | viability, T/C [17] 103% | viability, T/C [18] 65% | viability, T/C [19] 63.2% | viability, T/C [20] 53% | viability, T/C [21] 53.7% | viability, T/C [22] 64.1% | viability, T/C [23] 69.2% | viability, T/C [24] 35.8% | viability, T/C [25] 56.2% | viability, T/C [26] 43.6% | viability, T/C [27] 45.4% | viability, T/C [28] 52.7% | viability, T/C [29] 54% | viability, T/C [30] 37.4% | viability, T/C [31] 47.9% | viability, T/C [32] 40.9% | viability, T/C [33] 41.5% | viability, T/C [34] 34.4% | viability, T/C [35] 35.2% | viability, T/C [36] 35.1%
0.156 µM: IC50 (second compound 3.16 µM)
